In the test the target is human H3 receptor (Homo sapiens, UniProt Q9Y5N1). In words: cAMP quantification assay for human H3 receptor (DiscoveRx cAMP XS+).

Where only a bound is given, the exact number is not on record here.

Consider two molecules from US8912176B2 (Evotec AG, priority 2009, dated 2014).

Sequence of human H3 receptor (Q9Y5N1 whole entry): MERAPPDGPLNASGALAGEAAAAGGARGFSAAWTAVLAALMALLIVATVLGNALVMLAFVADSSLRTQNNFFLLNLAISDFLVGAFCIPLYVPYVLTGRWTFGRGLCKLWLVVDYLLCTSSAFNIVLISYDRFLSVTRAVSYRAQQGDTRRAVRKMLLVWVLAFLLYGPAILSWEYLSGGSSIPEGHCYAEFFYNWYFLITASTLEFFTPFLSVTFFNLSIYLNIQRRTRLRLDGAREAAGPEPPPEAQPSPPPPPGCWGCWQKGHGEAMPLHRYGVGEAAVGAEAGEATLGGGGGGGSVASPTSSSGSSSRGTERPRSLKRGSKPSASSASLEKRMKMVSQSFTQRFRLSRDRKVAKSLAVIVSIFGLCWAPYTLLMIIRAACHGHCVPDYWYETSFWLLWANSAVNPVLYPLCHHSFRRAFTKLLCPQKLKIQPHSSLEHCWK

As to `O=C(c1ccc(OC2CCOCC2)cc1)N1CC(C(=O)N2CCCN(C3CCC3)CC2)C1` [Example 11, 1-cyclobutyl-4-[(1-{[4-(tetrahydro-2H-pyran-4-yloxy)phenyl]carbonyl}azetidin-3-yl)carbonyl]-1,4-diazepane], the 50% inhibitory concentration (IC50) was less than 50 nM.
For `O=C(c1ccc(-n2cncn2)cc1)N1CC(C(=O)N2CCCN(C3CCC3)CC2)C1` [Example 73, 1-cyclobutyl-4-[(1-{[4-(1H-1,2,4-triazol-1-yl)phenyl]carbonyl}azetidin-3-yl)carbonyl]-1,4-diazepane] the value was less than 50 nM.
